Experimental data from patent publication US11446269B2, “Methods of reducing or preventing oxidation of small dense LDL or membrane polyunsaturated fatty acids” (Amarin Pharmaceuticals Ireland Limited, priority 2014, dated 2022).

Test system: HUVECs
Test: NO and ONOO^− release from HUVECs treated concomitantly with agent-treated oxLDL (Example 11, objective 2)
Type: cell-based, human
Conditions: oxLDL 11 mg/dL treated 30 min with agents 10 μM, 60 min exposure, calcium ionophore; in nM
Experimental: Human umbilical vein endothelial cells (HUVECs) were obtained from healthy, female donors and isolated into primary, proliferating cell cultures (Clonetics, San Diego, Calif.). The cells were incubated in 95% air/5% CO2 at 37° C. and passaged by an enzymatic (trypsin) procedure. The confluent cells (4 to 5×10^5 cells/35 mm dish) were plated with minimum essential medium containing 3 mM L-arginine and 0.1 mM BH4 [(6R)-5,6,7,8-tetrahydrobiopterin]. Before experimental use, the cells (from second or third passage) were rinsed twice with Tyrode-HEPES buffer with 1.8 mM CaCl2.
Concurrent measurements of NO and ONOO^− were performed with tandem electrochemical nanosensors combined into one working unit with a total diameter of 200-400 nm. Their design is based on previously developed and chemically modified carbon-fiber technology. […]
The amperometric method (with a response time of 0.1 ms) provides a quantitative signal (current) that is directly proportional to changes (from basal levels) in NO or ONOO^− concentration. […] Basal NO or ONOO^− levels were measured by differential pulse voltammetry in separate experiments.
All measurements of NO and ONOO^− were performed on intact endothelial cells. […] Cells will then be treated with calcium ionophore (to maximally stimulate the release of nitrous molecules) and monitored continuously for changes in amperometric current. […]

## CC/C=C\C/C=C\C/C=C\C/C=C\C/C=C\C/C=C\CCC(=O)O [DHA, docosahexaenoic acid]
  ONOO^− release: 240 ± 27^
